Results on two compounds are retold here after patent US20110033461A1, “Combination Therapy for the Treatment of Cancer” (priority 2008, published 2011).

By IC50 is commonly meant the point on the concentration scale where inhibition reaches its midpoint.

One assay deals with DLD1 cells. Description: viability-based synergy experiment, C1368 and erlotinib, DLD1 cells. The assay is classed as cell-based. An excerpt: (§1) ED refers to the percentage of cell killed at different drug doses.
Assay [1] concerns HCT116 cells. Nature of the assay: viability-based synergy experiment, C1368 and cetuximab, HCT116 cells. The assay is classed as cell-based, human.
Assay [2] has as its system HCT116 cells. Description: viability-based synergy experiment, C1368 and erlotinib, HCT116 cells. The assay is classed as cell-based, human. The conditions noted are these: for fold decrease of IC50 value, combination vs drug alone: C1368:erlotinib 1:25 ratio.
Description: as §1

Assay [3] has as its system HCT116 cells. Nature of the assay: cell cycle analysis of erlotinib-treated HCT116 cells. The assay is classed as cell-based, human. An excerpt: Inhibition of Aurora kinase activity is associated with cell cycle arrest.

The structures appear in SMILES notation. Like-named read-outs stand apart in the source and are kept apart here.

Consider `O=C(Nc1cccc(Nc2nccc(Nc3cccc(C(F)(F)F)c3)n2)c1)C1CC1` [C1368], for which the IC50 worked out at 0.5 µM in the assay with DLD1 cells (DLD1 cells, combination treatment with C1368 and erlotinib, read-out: IC50 in combination); 2.7 µM in the assay with DLD1 cells (DLD1 cells, single agent, read-out: IC50, single agent); 1 µM with HCT116 cells [1] (cetuximab with C1368, 1:109 ratio, read-out: IC50 value in combination); 2.1 µM with HCT116 cells [1] (read-out: IC50 value, drug alone (cetuximab experiment), drug alone); 0.5 µM in the assay on HCT116 cells [2] (HCT116 cells, combination of C1368 and erlotinib, 1:25 ratio, read-out: IC50 value in combination); 2.3 µM in the assay with HCT116 cells [2] (HCT116 cells, treatment with either drug alone, read-out: IC50 value, drug alone). For the same compound, the “fold decrease of IC50 value, combination vs drug alone” value in the assay on HCT116 cells [2] (HCT116 cells) is over 4 fold.

Regarding `C#Cc1cccc(Nc2ncnc3cc(OCCOC)c(OCCOC)cc23)c1` [erlotinib], the 50% inhibitory concentration (IC50) with DLD1 cells (Homo sapiens, DLD-1, read-out: IC50 in combination) came out at 13.8 µM; with DLD1 cells (Homo sapiens, DLD-1, DLD1 cells, single agent, read-out: IC50, single agent), 71.7 µM; with HCT116 cells [2] (Homo sapiens, HCT-116, read-out: IC50 value in combination), 12.3 µM; in the assay with HCT116 cells [2] (Homo sapiens, HCT-116, HCT116 cells, treatment with either drug alone, read-out: IC50 value, drug alone) it was 37.3 µM. Further, the “concentration at which there was a reduction in cell number suggesting cell death” value in the assay with HCT116 cells [3] was over 50 µM. Moreover, in the assay on HCT116 cells [3], the “induction of cell cycle arrest” value is listed as “did not noticeably induce cell cycle arrest”. Also, the “fold decrease of IC50 value, combination vs drug alone” value with HCT116 cells [2] (HCT116 cells) is recorded as over 3 fold.
